# Assay results: article PMC2562352 (Journal of medicinal chemistry, 2008)
# Test system: yellow fever virus
# Assay: not given
# Format: cell-based, yellow fever virus (YFV 17D)
# Settings: not given
Structure (SMILES),antiviral activity vs. yellow fever virus (in words),antiviral activity relative to parent compound M02 [times]
"COC(=O)c1sc(-c2ccc(Cl)cc2)nc1C [Compound 32, 2-(4-Chlorophenyl)-4-methyl-thiazole-5-carboxylic Acid Methyl Ester]",inactive,
"C/C(=N\NC(=N)N)c1ccc(NC(=O)Nc2nc(C)c(C(=O)NCc3ccc(Cl)cc3Cl)s2)cc1 [Compound 2, (E)-2-(3-(4-(1-(2-Carbamimidoylhydrazono)-ethyl)-phenyl)-ureido)-N-(2,4-dichlorobenzyl)-4-methylthiazole-5-carboxamide]",active,
"CC(=O)c1ccc(NC(=O)Nc2nc(C)c(C(=O)NCc3ccc(Cl)c(Cl)c3)s2)cc1 [Compound 8, 2-(3-(4-Acetylphenyl)-ureido)-N-(3,4-dichlorobenzyl)-4-methylthiazole-5-carboxamide]",active,
"CC(=O)c1ccc(NC(=O)Nc2nc(C)c(C(=O)NCc3ccc(Cl)cc3Cl)s2)cc1 [Compound 7, 2-(3-(4-Acetylphenyl)-ureido)-N-(2,4-dichlorobenzyl)-4-methylthiazole-5-carboxamide]",inactive,
"C/C(=N\NC(N)=O)c1ccc(NC(=O)Nc2nc(C)c(C(=O)NCc3ccc(Cl)cc3Cl)s2)cc1 [Compound 1, (E)-2-(3-(4-(1-(2-Carbamoylhydrazono)-ethyl)-phenyl)-ureido)-N-(2,4-dichlorobenzyl)-4-methylthiazole-5-carboxamide]",inactive,
"Cc1nc(-n2nc(-c3ccccc3)cc2-c2ccccc2)sc1C(=O)NCc1ccc(Cl)c(Cl)c1 [Compound 11, N-(3,4-Dichlorobenzyl)-2-(3,5-diphenyl-1H-pyrazol-1-yl)-4-methylthiazole-5-carboxamide]",,10
Nc1ccc(SCc2csc(-c3cccnc3)n2)cc1 [Compound 28],lose antiviral activity,
"CC(=O)c1ccc(NC(=O)Nc2nc(C)c(C(=O)O)s2)cc1 [Compound 4, 2-[3-(4-Acetylphenyl)-ureido]-4-methylthiazole-5-carboxylic Acid]",lost its activity,
Nc1ccccc1SCc1csc(-c2cccnc2)n1 [Compound 29],lose antiviral activity,
Clc1ccc(-c2nc(CSc3cccc(Cl)c3)cs2)cc1 [Compound 30],lose antiviral activity,
"COC(=O)c1sc(N(Cc2ccc(C(C)=O)cc2)Cc2ccc(C(C)=O)cc2)nc1C [Compound 18, Methyl 2-(Bis(4-acetylbenzyl)amino)-4-methylthiazole-5-carboxylate]",active,

# Test system: BHK cells
# Assay: Cell viability assay
# Settings: CC50 compared with M02
row,Structure (SMILES),cytotoxicity relative to parent compound M02 (times less) [times]
1,"Cc1nc(-n2nc(-c3ccccc3)cc2-c2ccccc2)sc1C(=O)NCc1ccc(Cl)c(Cl)c1 [Compound 11, N-(3,4-Dichlorobenzyl)-2-(3,5-diphenyl-1H-pyrazol-1-yl)-4-methylthiazole-5-carboxamide]",2.7
